Test results from the supplement of paper PMC8671470.

How the values were obtained:
Assay in all cases: cell viability (% survival relative to DMSO control); higher = less cytotoxic
Conditions in all cases: 72 h
[1] = tested on: myeloid leukemia patient primary cells Pat.10
How it was run: (§1)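 Where an area under the curve appears, it was computed with the drc and PharmacoGx R packages from log-logistic fits. Those fits used four parameters. The underlying viability data came from CellTiter-Glo after 72 h, normalised to DMSO and 10 μM proteasome-inhibitor wells, with thawed, Ficoll-purified AML or CML patient mononuclear cells at 10,000 cells/well in RPMI 1640 with 10% FBS on 384-well plates pre-printed with 70 compounds at five tenfold concentrations (1–10,000 nM) in duplicate.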

[2] = tested on: myeloid leukemia patient primary cells Pat.5
How it was run: as §1

[3] = tested on: myeloid leukemia patient primary cells Pat.4
How it was run: as §1

[4] = tested on: myeloid leukemia patient primary cells Pat.2
How it was run: as §1

SMILES	cell viability ([1]; 1 nM)	cell viability ([1]; 10 nM)	cell viability ([1]; 100 nM)	cell viability ([1]; 1000 nM)	cell viability ([1]; 10000 nM)	cell viability ([2]; 1 nM)	cell viability ([2]; 10 nM)	cell viability ([2]; 100 nM)	cell viability ([2]; 1000 nM)	cell viability ([2]; 10000 nM)	cell viability ([3]; 1 nM)	cell viability ([3]; 10 nM)	cell viability ([3]; 100 nM)	cell viability ([3]; 1000 nM)	cell viability ([3]; 10000 nM)	cell viability ([4]; 1 nM)	cell viability ([4]; 10 nM)	cell viability ([4]; 100 nM)	cell viability ([4]; 1000 nM)	cell viability ([4]; 10000 nM)
Sc1ncnc2nc[nH]c12 [6-mercaptopurine]	59%	63.4%	70.1%	72.4%	56.6%	8.91%	64.1%	35.4%	17.2%	1.33%	79.1%	80%	85.9%	88.2%	92.3%	95.6%	> 100%	94%	99.9%	> 100%
Cc1noc2c1-c1ccccc1C(c1ccc(Cl)cc1)=N[C@H]2CC(N)=O [CPI-0610]	68.5%	91.9%	29.6%	27.8%	39.2%	81.3%	12.4%	82.4%	7.88%	10.1%	82.5%	65.6%	58.1%	6.43%	7.38%	99.4%	97.6%	88.9%	58.5%	40.3%
Nc1ccn([C@@H]2O[C@H](CO)[C@@H](O)[C@@H]2O)c(=O)n1 [Cytarabine]	89.9%	45.1%	67%	54.1%	13.9%	84.9%	1.18%	24.7%	1.18%	2.01%	87.3%	88.5%	75.5%	75.1%	5.31%	99%	88.1%	95.9%	89.1%	37.3%
CCN(CC)CCN(Cc1ccc(-c2ccc(C(F)(F)F)cc2)cc1)C(=O)Cn1c(SCc2ccc(F)cc2)nc(=O)c2c1CCC2 [Darapladib]	66.6%	77.8%	12.3%	93.5%	4.94%	12.5%	23.9%	5.8%	< 0%	8.02%	73.2%	84.2%	67.9%	83%	0.925%	84.7%	95.9%	83%	83.1%	< 0%
CC12CCC(O)CC1CCC1C2CCC2(C)C(C3=CC(=O)OC3)CCC12O (stereo not given) [Digitoxigenin]	71.9%	52.2%	> 100%	96.8%	> 100%	56.2%	38.7%	33.1%	0.265%	4.43%	89.8%	81.8%	81.6%	5.88%	1.81%	94.1%	95.3%	88.5%	42.4%	6.42%
C[C@H]1O[C@@H](O[C@H]2[C@@H](O)C[C@H](O[C@H]3[C@@H](O)C[C@H](O[C@H]4CC[C@@]5(C)[C@H](CC[C@@H]6[C@@H]5C[C@@H](O)[C@]5(C)[C@@H](C7=CC(=O)OC7)CC[C@]65O)C4)O[C@@H]3C)O[C@@H]2C)C[C@H](O)[C@@H]1O [Digoxin]	91.9%	57.7%	98.8%	91.5%	> 100%	82.9%	77.9%	9.05%	2.24%	< 0%	93%	76.1%	67.4%	3.24%	4.37%	99.2%	96.8%	82.8%	26.6%	3.27%
Clc1ccc(COC(Cn2ccnc2)c2ccc(Cl)cc2Cl)cc1 (stereo not given) [Econazole]	70.3%	85.8%	73.5%	34.5%	< 0%	42.3%	90.6%	35.2%	6.55%	1.33%	88%	94.6%	81.7%	88.5%	74.9%	94.9%	91.2%	96.5%	97.6%	90%
C[C@]12O[C@H](C[C@]1(O)CO)n1c3ccccc3c3c4c(c5c6ccccc6n2c5c31)CNC4=O [Lestaurtinib]	64.5%	34.5%	45.6%	73.9%	9.05%	22.6%	2.27%	10%	11.2%	< 0%	93.5%	64.5%	8.79%	31.2%	2.37%	97.1%	79%	74.7%	51.1%	11.5%
CC(Cc1ccc(O)c(O)c1)C(C)Cc1ccc(O)c(O)c1 (stereo not given) [Masoprocol]	56.6%	47.4%	89.9%	42.2%	> 100%	57.1%	7.88%	76.6%	21.6%	> 100%	77.7%	91.8%	> 100%	81.8%	19.3%	98.7%	89.8%	90.3%	87.7%	68%
COc1c(C)c2c(c(O)c1C/C=C(\C)CCC(=O)O)C(=O)OC2 [Mycophenolic acid]	49.6%	77.5%	79.2%	69.8%	53.1%	< 0%	62.9%	26%	67.3%	> 100%	88.4%	95%	76.3%	89.2%	32.9%	97.4%	99.8%	82.1%	> 100%	85.6%
CCOC(=O)N1c2ccc(C(F)(F)F)cc2[C@@H](N(Cc2cc(C(F)(F)F)cc(C(F)(F)F)c2)C(=O)OC)C[C@H]1CC [Torcetrapib]	49.2%	62.1%	78.5%	44.5%	38.2%	56.9%	0.265%	97.4%	27.5%	1.18%	86.9%	86%	74.1%	97%	56.7%	97.2%	84.4%	99.7%	99.7%	80.2%
